Columns and labels:
PC-3 = experiment: Antitumor activity against human PC-3 cells xenografted in nude mouse assessed as inhibition of tumor growth at 10 mg/kg/day, ip administered for 42 days starting from 14 days post inoculation relative to control; format: functional; details: PC-3, 1008 h, time 42 day, read-out: TGI
[1] = molecular target: T1, Tyrosine-protein kinase BTK (Homo sapiens, UniProt Q06187); experiment: Inhibition of N-terminal His6-tagged human full length recombinant BTK expressed in baculovirus infected Sf21 insect cells using YIYGSFK as substrate preincubated for 5 mins followed by 33p-labeled ATP addition and measured after 1 hr by thin layer chromatography
[2] = molecular target: T2, Tyrosine-protein kinase JAK3 (Homo sapiens, UniProt P52333); experiment: Inhibition of recombinant JAK3 (unknown origin)
T2 sequence (P52333 whole entry): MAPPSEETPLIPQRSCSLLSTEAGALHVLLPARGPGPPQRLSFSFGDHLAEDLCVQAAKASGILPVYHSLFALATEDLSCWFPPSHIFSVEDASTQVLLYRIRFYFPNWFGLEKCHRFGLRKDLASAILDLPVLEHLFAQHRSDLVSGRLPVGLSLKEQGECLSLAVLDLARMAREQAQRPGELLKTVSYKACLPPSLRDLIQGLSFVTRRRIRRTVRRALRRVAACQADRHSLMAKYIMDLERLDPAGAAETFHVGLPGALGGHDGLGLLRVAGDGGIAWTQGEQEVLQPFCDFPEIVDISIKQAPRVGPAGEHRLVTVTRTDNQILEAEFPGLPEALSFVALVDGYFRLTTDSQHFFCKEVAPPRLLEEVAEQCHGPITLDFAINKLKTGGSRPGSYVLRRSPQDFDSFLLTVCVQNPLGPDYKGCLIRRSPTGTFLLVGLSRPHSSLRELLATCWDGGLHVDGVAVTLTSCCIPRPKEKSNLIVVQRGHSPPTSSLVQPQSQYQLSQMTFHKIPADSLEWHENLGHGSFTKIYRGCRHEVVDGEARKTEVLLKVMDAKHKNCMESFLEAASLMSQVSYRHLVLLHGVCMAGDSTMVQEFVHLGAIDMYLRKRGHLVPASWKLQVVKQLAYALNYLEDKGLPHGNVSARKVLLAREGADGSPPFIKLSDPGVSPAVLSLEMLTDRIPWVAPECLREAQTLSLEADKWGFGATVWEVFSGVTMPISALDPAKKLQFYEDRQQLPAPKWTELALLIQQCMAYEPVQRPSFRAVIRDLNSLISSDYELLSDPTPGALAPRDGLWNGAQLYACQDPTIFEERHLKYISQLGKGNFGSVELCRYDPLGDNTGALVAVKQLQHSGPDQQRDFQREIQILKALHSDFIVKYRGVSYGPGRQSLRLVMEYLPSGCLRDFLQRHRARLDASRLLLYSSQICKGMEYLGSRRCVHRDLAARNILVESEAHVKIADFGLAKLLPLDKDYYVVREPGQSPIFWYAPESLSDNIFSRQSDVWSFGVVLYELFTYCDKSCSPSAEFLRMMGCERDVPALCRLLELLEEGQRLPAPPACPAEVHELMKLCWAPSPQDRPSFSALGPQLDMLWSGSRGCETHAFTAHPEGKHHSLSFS

[3] = molecular target: T1, Tyrosine-protein kinase BTK; experiment: Inhibition of BTK (unknown origin)
BaF3 [4] = experiment: Antiproliferative activity against mouse BaF3 cells expressing […] FLT3 ITD/[…] double mutant assessed as inhibition of cell growth; format: functional, cell-based
BaF3 [5] = experiment: Antiproliferative activity against mouse BaF3 cells expressing wild type FLT3 assessed as inhibition of cell growth; format: functional, cell-based
BaF3 [6] = experiment: Antiproliferative activity against mouse BaF3 cells expressing […] FLT3 ITD mutant assessed as inhibition of cell growth; format: functional, cell-based
BaF3 [7] = experiment: Antiproliferative activity against mouse BaF3 cells expressing […] FLT3 […] mutant assessed as inhibition of cell growth; format: functional, cell-based
MOLM-13 = experiment: Antiproliferative activity against human MOLM-13 cells assessed as inhibition of cell growth; format: functional, cell-based
BaF3 [8] = experiment: Antiproliferative activity against mouse BaF3 cells expressing […] FLT3 ITD F691L mutant assessed as inhibition of cell growth; format: functional, cell-based
MV4-11 = experiment: Antiproliferative activity against human MV4-11 cells assessed as inhibition of cell growth; format: functional, cell-based
[9] = molecular target: T3, Cytoplasmic tyrosine-protein kinase BMX (Homo sapiens) (UniProt P51813); experiment: Inhibition of BMX (unknown origin) assessed as residual activity at 200 nM relative to control
T3 sequence (whole entry): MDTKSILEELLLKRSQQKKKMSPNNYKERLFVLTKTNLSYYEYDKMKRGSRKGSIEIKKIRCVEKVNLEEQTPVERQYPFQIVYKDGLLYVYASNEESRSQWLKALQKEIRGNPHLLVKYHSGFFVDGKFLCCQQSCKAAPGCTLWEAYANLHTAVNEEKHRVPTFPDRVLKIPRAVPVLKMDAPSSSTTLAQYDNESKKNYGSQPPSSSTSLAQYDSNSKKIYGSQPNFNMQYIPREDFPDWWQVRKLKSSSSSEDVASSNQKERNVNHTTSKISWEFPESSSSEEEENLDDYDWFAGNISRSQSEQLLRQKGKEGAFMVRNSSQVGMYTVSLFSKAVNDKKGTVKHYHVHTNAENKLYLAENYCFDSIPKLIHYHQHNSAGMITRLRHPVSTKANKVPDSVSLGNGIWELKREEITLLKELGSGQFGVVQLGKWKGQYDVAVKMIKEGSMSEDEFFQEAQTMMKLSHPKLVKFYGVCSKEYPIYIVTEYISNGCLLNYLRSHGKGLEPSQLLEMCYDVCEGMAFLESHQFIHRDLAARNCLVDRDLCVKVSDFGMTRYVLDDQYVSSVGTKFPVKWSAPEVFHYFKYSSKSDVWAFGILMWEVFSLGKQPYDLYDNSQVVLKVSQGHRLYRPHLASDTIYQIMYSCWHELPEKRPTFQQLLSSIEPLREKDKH

[10] = molecular target: T1, Tyrosine-protein kinase BTK; experiment: Inhibition of BTK (unknown origin) assessed as residual activity at 200 nM relative to control
DOHH-2 [11] = experiment: Antitumor activity against human DOHH-2 cells xenografted in CB17/SCID mouse assessed as reduction in tumor growth at 100 mg/kg, po administered twice daily for 30 days and measured twice a week relative to control; format: functional; set-up: scale not given: the % may be the effect or the level left; details: time 30 day
DOHH-2 [12] = experiment: Cytotoxicity against human DOHH-2 cells expressing BTK and PI3kdelta assessed as inhibition of cell growth incubated for 72 hrs by celltiter-glo assay; format: functional, cell-based; details: DOHH-2, 72 h
[13] = Inhibition of mTORC1 (unknown origin) expressed in HEK293T cells using 4EBP1 as substrate assessed as reduction in substrate phosphorylation preincubated for 30 mins followed by ATP addition and measured after 30 mins by Western blot analysis; set-up: species or system Homo sapiens
[14] = Cytotoxicity against human MM.1 cells assessed as inhibition of cell growth incubated for 48 hrs by MTT assay; format: functional, cell-based; details: Mm1, 48 h
[15] = molecular target: T1, Tyrosine-protein kinase BTK; experiment: Inhibition of N-terminal His tagged human recombinant full length BTK expressed in baculovirus infected Sf9 insect cells using Poly (4:1 Glu, Tyr) Peptide as substrate at 0.5 uM incubated for 60 mins by ADP-glo reagent based luminescence assay relative to control
Tubulin (Homo sapiens) = Tubulin (Homo sapiens) (UniProt P68371+Q9H4B7+P0DPH7+P68366+Q13509+Q71U36+P04350+Q3ZCM7+P07437+P68363+Q9BQE3+Q6PEY2+Q13885+Q9BVA1+Q9BUF5); experiment: Inhibition of microtubule polymerization in human U-266 cells assessed as increase in phospho-Bcl2 expression at 10 uM measured upto 24 hrs by Western blot analysis relative to control; format: cell-based
U-266 [16] = experiment: Cytotoxicity against human U-266 cells assessed as inhibition of cell growth incubated for 48 hrs by MTT assay; format: functional, cell-based; details: U-266, 48 h
U-266 [17] = experiment: Antitumor activity against human U-266 cells xenografted in BALB/c nude mouse assessed as tumor growth inhibition at 1 mg/kg, ip administered twice weekly and measured for 4 weeks by digital caliper analysis relative to control; format: functional; details: U-266, 672 h, read-out: TGI
RPMI-8226 = experiment: Cytotoxicity against human RPMI-8226 cells assessed as inhibition of cell growth incubated for 48 hrs by MTT assay; format: functional, cell-based; details: RPMI-8226, 48 h
[18] = molecular target: Tyrosine-protein kinase HCK (Homo sapiens, UniProt P08631); experiment: Inhibition of HCK (unknown origin)
DOHH-2 [19] = experiment: Antitumor activity against human DOHH-2 cells xenografted in CB17/SCID mouse assessed as reduction in tumor growth at 30 mg/kg, po administered once daily in combination with idelalisib at 50 mg/kg for 30 days and measured twice a week relative to control; format: functional; set-up: scale not given: the % may be the effect or the level left; details: time 30 day
DOHH-2 [20] = experiment: Antitumor activity against human DOHH-2 cells xenografted in CB17/SCID mouse assessed as reduction in tumor growth at 15 mg/kg, po administered once daily in combination with idelalisib at 25 mg/kg for 30 days and measured twice a week relative to control; format: functional; set-up: scale not given: the % may be the effect or the level left; details: time 30 day
DOHH-2 [21] = experiment: Antitumor activity against human DOHH-2 cells xenografted in CB17/SCID mouse assessed as reduction in tumor growth at 25 mg/kg, po administered twice daily in combination with ibrutinib at 15 mg/kg for 30 days and measured twice a week relative to control; format: functional; set-up: scale not given: the % may be the effect or the level left; details: time 30 day
DOHH-2 [22] = experiment: Antitumor activity against human DOHH-2 cells xenografted in CB17/SCID mouse assessed as reduction in tumor growth at 50 mg/kg, po administered twice daily in combination with ibrutinib at 30 mg/kg for 30 days and measured twice a week relative to control; format: functional; set-up: scale not given: the % may be the effect or the level left; details: time 30 day

T1 sequence (Q06187 whole entry): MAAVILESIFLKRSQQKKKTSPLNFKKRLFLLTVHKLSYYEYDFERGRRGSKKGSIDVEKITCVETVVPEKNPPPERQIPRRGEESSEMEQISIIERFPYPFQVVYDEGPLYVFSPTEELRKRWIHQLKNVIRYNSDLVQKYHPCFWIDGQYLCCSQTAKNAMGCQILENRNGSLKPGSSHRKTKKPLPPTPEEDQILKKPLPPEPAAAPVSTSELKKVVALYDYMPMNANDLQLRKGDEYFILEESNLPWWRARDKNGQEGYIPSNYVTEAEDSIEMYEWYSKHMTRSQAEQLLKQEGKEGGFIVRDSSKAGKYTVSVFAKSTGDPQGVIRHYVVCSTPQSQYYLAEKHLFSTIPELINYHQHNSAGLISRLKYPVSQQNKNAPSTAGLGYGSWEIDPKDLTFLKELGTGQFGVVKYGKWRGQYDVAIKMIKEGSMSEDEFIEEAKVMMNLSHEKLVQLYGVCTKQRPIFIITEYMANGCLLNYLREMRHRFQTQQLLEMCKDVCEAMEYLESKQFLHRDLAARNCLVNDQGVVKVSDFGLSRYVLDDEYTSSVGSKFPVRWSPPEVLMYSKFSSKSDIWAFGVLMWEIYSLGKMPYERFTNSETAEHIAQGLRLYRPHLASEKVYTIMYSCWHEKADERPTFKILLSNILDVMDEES
Sequence of Tyrosine-protein kinase HCK (P08631 whole entry): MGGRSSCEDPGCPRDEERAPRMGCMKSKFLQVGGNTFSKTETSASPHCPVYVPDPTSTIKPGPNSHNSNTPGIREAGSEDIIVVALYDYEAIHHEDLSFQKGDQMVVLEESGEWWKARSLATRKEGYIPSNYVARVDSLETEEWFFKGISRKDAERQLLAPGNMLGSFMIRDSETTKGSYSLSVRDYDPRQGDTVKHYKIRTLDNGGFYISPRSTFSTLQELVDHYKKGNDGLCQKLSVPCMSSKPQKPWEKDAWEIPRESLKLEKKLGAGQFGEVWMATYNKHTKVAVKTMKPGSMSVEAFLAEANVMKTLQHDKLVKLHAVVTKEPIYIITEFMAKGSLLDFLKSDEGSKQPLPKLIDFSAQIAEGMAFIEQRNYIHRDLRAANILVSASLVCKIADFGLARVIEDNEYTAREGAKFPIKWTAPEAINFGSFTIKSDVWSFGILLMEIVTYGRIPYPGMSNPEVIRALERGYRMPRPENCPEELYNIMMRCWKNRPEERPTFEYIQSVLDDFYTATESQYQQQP

## CC(C)Cc1nc2cc3c(cc2[nH]c1=O)nc(NC(=O)c1ccc(-c2ccncc2)cc1)n3CCCN1CCCCC1
PC-3
  inhibition in vivo at 10 mg/kg/day: 70%
[1]
  IC50: 50 nM

## C=CC(=O)Nc1cccc(-c2c[nH]c3ncc(NC(=O)c4cccs4)cc23)c1
[2]
  IC50: > 10000 nM
[3]
  IC50: < 1 nM

## Cc1cnc(-c2ccc(-c3ccc(NC(=O)Nc4cccc(C(F)(F)F)c4)cc3F)c3c2C(=O)NC3)[nH]1
BaF3 [4]
  IC50: 9.72 nM
BaF3 [5]
  IC50: 9.49 nM
BaF3 [6]
  IC50: 0.3 nM
BaF3 [7]
  IC50: 8.26 nM
MOLM-13
  IC50: 0.82 nM
BaF3 [8]
  IC50: 0.43 nM
MV4-11
  IC50: 0.17 nM

## C=CC(=O)Nc1cccc(-c2c[nH]c3ncccc23)c1
[9]
  Activity: 2.7%
[10]
  Activity: 18.2%

## Nc1ccc2c(c1)CC(n1nc(-c3cc(F)c4c(c3)NCCO4)c3c(N)ncnc31)C2 (stereo unspecified)
DOHH-2 [11]
  Activity: 45.2%
DOHH-2 [12]
  IC50: 1340 nM

## Nc1ccc(-c2ccc3ncc4ccc(=O)n(-c5cccc(C(F)(F)F)c5)c4c3c2)cn1
[13]
  IC50: 0.25 nM

## N#CSCc1ccc(CN2C(=O)C(=O)c3cc(Br)cc(Br)c32)cc1
[14]
  IC50: 500 nM
[15]
  inhibition: 50%
Tubulin (Homo sapiens)
  inhibition: 77%
U-266 [16]
  IC50: 500 nM
U-266 [17]
  inhibition in vivo at 1 mg/kg: 50%
RPMI-8226
  IC50: 500 nM

## CN1CCN([C@H]2CC[C@H](n3nc(-c4ccc(Oc5ccccc5)cc4)c4c(N)ncnc43)CC2)CC1
[18]
  IC50: < 0.5 nM
[3]
  IC50: 0.92 nM

## CC[C@]1(O)C[C@@H]2CN(CCc3c([nH]c4ccccc34)[C@@](C(=O)OC)(c3cc4c(cc3OC)N(C)[C@H]3[C@@](O)(C(=O)OC)[C@H](OC(C)=O)[C@]5(CC)C=CCN6CC[C@]43[C@@H]65)C2)C1
Tubulin (Homo sapiens)
  inhibition: 66%

## C=CC(=O)N1CCC[C@@H](n2nc(-c3ccc(Oc4ccccc4)cc3)c3c(N)ncnc32)C1 [IBRUTINIB]
DOHH-2 [19]
  Activity: 57.9%
DOHH-2 [20]
  Activity: 38.1%
DOHH-2 [12]
  IC50: 23 nM

## CC[C@H](Nc1ncnc2[nH]cnc12)c1nc2cccc(F)c2c(=O)n1-c1ccccc1 [IDELALISIB]
DOHH-2 [21]
  Activity: 38.1%
DOHH-2 [22]
  Activity: 57.9%
DOHH-2 [12]
  IC50: 860 nM

From ChEMBL document CHEMBL5126539, “Recent development of BTK-based dual inhibitors in the treatment of cancers” (Eur J Med Chem, 2022)
